Where two headings read alike, the source gives them in different places.
System: tryptamine-induced stereotypies and hind limb paralysis
Test: Tryptamine potentiation test
Type: in vivo, mice
Conditions: for ED50: Mus musculus, po
Method: […] […] (60 Mg/kg of tryptamine alone causes this syndrome but it lasts for less than a minute, usually only a few seconds.) The data were analyzed quantally and ED50's calculated.

CCc1c(C)[nH]c2c1C(=O)C(CN1CCOCC1)CC2 (centres unmarked) [Molindone, 3-ethyl-6,7-dihydro-2-methyl-5-(morpholinomethyl)indol-4-(5H)-one]
HIND LIMB PARALYSIS (mice responding) (2.5 mg/kg p.o., 4 Hrs., N=10): 0
ED50, HIND LIMB PARALYSIS (4 Hrs.): 8.6 mg/kg p.o.
HEAD TWITCH (mice responding) (5. mg/kg p.o., 4 Hrs., N=10): 0
HIND LIMB PARALYSIS (mice responding) (5. mg/kg p.o., 4 Hrs., N=10): 1
ED50, HEAD TWITCH (6 Hrs.): 15 mg/kg p.o.
HEAD TWITCH (mice responding) (10. mg/kg p.o., 1 Hr., N=10): 1
HIND LIMB PARALYSIS (mice responding) (10. mg/kg p.o., 1 Hr., N=10): 3
HEAD TWITCH (mice responding) (10. mg/kg p.o., 2 Hrs., N=10): 2
HIND LIMB PARALYSIS (mice responding) (10. mg/kg p.o., 2 Hrs., N=10): 8
HEAD TWITCH (mice responding) (10. mg/kg p.o., 4 Hrs., N=20): 1
HIND LIMB PARALYSIS (mice responding) (10. mg/kg p.o., 4 Hrs., N=20): 13
HEAD TWITCH (mice responding) (10. mg/kg p.o., 6 Hrs., N=10): 0
HIND LIMB PARALYSIS (mice responding) (10. mg/kg p.o., 6 Hrs., N=10): 7
HEAD TWITCH (mice responding) (10. mg/kg p.o., 24 Hrs., N=10): 0
HIND LIMB PARALYSIS (mice responding) (10. mg/kg p.o., 24 Hrs., N=10): 0
HEAD TWITCH (mice responding) (20. mg/kg p.o., 1 Hr., N=10): 3
HIND LIMB PARALYSIS (mice responding) (20. mg/kg p.o., 1 Hr., N=10): 9
HEAD TWITCH (mice responding) (20. mg/kg p.o., 2 Hrs., N=10): 3
HIND LIMB PARALYSIS (mice responding) (20. mg/kg p.o., 2 Hrs., N=10): 10
HEAD TWITCH (mice responding) (20. mg/kg p.o., 4 Hrs., N=20): 17
HIND LIMB PARALYSIS (mice responding) (20. mg/kg p.o., 4 Hrs., N=20): 20
HEAD TWITCH (mice responding) (20. mg/kg p.o., 6 Hrs., N=10): 9
HIND LIMB PARALYSIS (mice responding) (20. mg/kg p.o., 6 Hrs., N=10): 10
HEAD TWITCH (mice responding) (20. mg/kg p.o., 24 Hrs., N=10): 0
HIND LIMB PARALYSIS (mice responding) (20. mg/kg p.o., 24 Hrs., N=10): 0
HEAD TWITCH (mice responding) (40. mg/kg p.o., 1 Hr., N=10): 5
HIND LIMB PARALYSIS (mice responding) (40. mg/kg p.o., 1 Hr., N=10): 10
HEAD TWITCH (mice responding) (40. mg/kg p.o., 2 Hrs., N=10): 5
HIND LIMB PARALYSIS (mice responding) (40. mg/kg p.o., 2 Hrs., N=10): 10
HEAD TWITCH (mice responding) (40. mg/kg p.o., 4 Hrs., N=20): 19
HIND LIMB PARALYSIS (mice responding) (40. mg/kg p.o., 4 Hrs., N=20): 20
HEAD TWITCH (mice responding) (40. mg/kg p.o., 6 Hrs., N=10): 9
HIND LIMB PARALYSIS (mice responding) (40. mg/kg p.o., 6 Hrs., N=10): 10
HEAD TWITCH (mice responding) (40. mg/kg p.o., 24 Hrs., N=10): 0
HIND LIMB PARALYSIS (mice responding) (40. mg/kg p.o., 24 Hrs., N=10): 0
HEAD TWITCH (mice responding) (80. mg/kg p.o., 1 Hr., N=10): 0
HIND LIMB PARALYSIS (mice responding) (80. mg/kg p.o., 1 Hr., N=10): 4
HEAD TWITCH (mice responding) (80. mg/kg p.o., 2 Hrs., N=10): 1
HIND LIMB PARALYSIS (mice responding) (80. mg/kg p.o., 2 Hrs., N=10): 4
HEAD TWITCH (mice responding) (80. mg/kg p.o., 4 Hrs., N=10): 3
HIND LIMB PARALYSIS (mice responding) (80. mg/kg p.o., 4 Hrs., N=10): 6
HEAD TWITCH (mice responding) (80. mg/kg p.o., 6 Hrs., N=10): 6
HIND LIMB PARALYSIS (mice responding) (80. mg/kg p.o., 6 Hrs., N=10): 10
HEAD TWITCH (mice responding) (80. mg/kg p.o., 24 Hrs., N=10): 0
HIND LIMB PARALYSIS (mice responding) (80. mg/kg p.o., 24 Hrs., N=10): 0
HEAD TWITCH (mice responding) (160. mg/kg p.o., 1 Hr., N=10): 0
HIND LIMB PARALYSIS (mice responding) (160. mg/kg p.o., 1 Hr., N=10): 1
HEAD TWITCH (mice responding) (160. mg/kg p.o., 2 Hrs., N=10): 0
HIND LIMB PARALYSIS (mice responding) (160. mg/kg p.o., 2 Hrs., N=10): 4
HEAD TWITCH (mice responding) (160. mg/kg p.o., 4 Hrs., N=10): 0
HIND LIMB PARALYSIS (mice responding) (160. mg/kg p.o., 4 Hrs., N=10): 2
HEAD TWITCH (mice responding) (160. mg/kg p.o., 6 Hrs., N=10): 0
HIND LIMB PARALYSIS (mice responding) (160. mg/kg p.o., 6 Hrs., N=10): 4
HEAD TWITCH (mice responding) (160. mg/kg p.o., 24 Hrs., N=10): 2
HIND LIMB PARALYSIS (mice responding) (160. mg/kg p.o., 24 Hrs., N=10): 2
ED50 (1 Hr., read-out: ED50, HEAD TWITCH): 40 mg/kg
ED50 (1 Hr., read-out: ED50, HIND LIMB PARALYSIS): 13 mg/kg
ED50 (2 Hrs., read-out: ED50, HEAD TWITCH): 40 mg/kg
ED50 (2 Hrs., read-out: ED50, HIND LIMB PARALYSIS): < 10 mg/kg
ED50 (4 Hrs., read-out: ED50, HEAD TWITCH): 16.7 mg/kg
ED50 (4 Hrs., read-out: ED50, HIND LIMB PARALYSIS): 8.6 mg/kg
ED50 (6 Hrs., read-out: ED50, HEAD TWITCH): 15 mg/kg
ED50 (6 Hrs., read-out: ED50, HIND LIMB PARALYSIS): < 10 mg/kg
ED50 (24 Hrs., read-out: ED50, HEAD TWITCH): > 160 mg/kg
ED50 (24 Hrs., read-out: ED50, HIND LIMB PARALYSIS): > 160 mg/kg
peak time, head twitch (oral, tryptamine potentiation): 6 h
peak time, hind limb paralysis (oral, tryptamine potentiation): 4 h
Effect on the action of tryptamine (oral, at higher doses the potentiation disappears): potentiates the action of tryptamine in a dose-related manner
